The text below walks through data of patent publication US20230159556A1, “NOVEL PROTEIN KINASE INHIBITORS” (TENOVA PHARMACEUTICALS INC., priority 2020, published 2023).

One may read the IC50 as the concentration that inhibits the measured activity by half.

SMILES strings stand for the structures.

In one experiment the target is T1, EGFR_L858R/T790M/C797S (Homo sapiens, UniProt P00533, C797S/L858R/T790M).
T1 construct: Reaction Biology Corporation (contract assay provider)
The experiment in a line: In vitro biochemical kinase assay (33P-ATP filter-binding, Reaction Biology). How it is done:
The biochemical kinase assay was performed at Reaction Biology Corporation (www.reactionbiology.com, Malvern, Pa.) following procedures described in the reference (Anastassiadis, T, et al, Nature Biotechnology, 2011, 29, 1039). Base Reaction buffer includes 20 mM Hepes (pH 7.5), 10 mM MgCl2, 1 mM EGTA, 0.02% Brij35, 0.02 mg/ml BSA, 0.1 mM Na3VO4, 2 mM DTT and 1% DMSO. Required cofactors are added individually to each kinase reaction. Testing compounds were dissolved in 100% DMSO to specific concentration. The serial dilution was conducted by Integra Viaflo Assist in DMSO. Compounds in 100% DMSO are into the kinase reaction mixture by Acoustic technology (Echo550; nanoliter range), incubate for 20 min at room temperature, followed by ^33P-ATP and incubation for 2 hours at room temperature. Radioactivity was then detected by filter-binding method. Kinase activity data were expressed as the percent remaining kinase activity in test samples compared to vehicle (dimethyl sulfoxide) reactions. IC50 values and curve fits were obtained using Prism (GraphPad Software).

A further experiment concerns Ba/F3_WT cell. The experiment in a line: BaF3 cell proliferation assay (CelltiterGlo, 72 hr). The settings on record: Mus musculus, 72 hr incubation. Format: cell-based. As to the method: (§1) The BaF3 cell proliferation assay was performed at Pharmaron (www.pharmaron.com, Beijing, China). The Ba/F3_WT and Ba/F3_Del19/T790M/C797S cell lines were maintained in 1640 medium containing 10% FBS, 1*PS and 1*Glutamax. Only cells with viability greater than 90% are used for assays. Dispense 30 μl of cell suspension at 700/well into 384 well microplate, add 30 nl compound solution into 384 cell plate by Echo, cells were incubated for 72 hr in 37° C./5% CO2 incubator, add 30 μl reagent CelltiterGlo assay kit (CTG, Promega) per well and shake plates, incubate the plate (avoiding light) at 37° C./5% CO2 for 30 min. and read the luminescence by Envision. The luminescence values were converted to % Inhibition. Calculate IC50 by fitting % inhibition values and log of compound concentrations to nonlinear regression (dose response−variable slope) with Graphpad 5.0.
(§2) Y=Bottom+(Top−Bottom)/(1+10^((Log IC50−X)*HillSlope))
(§3) X: log of inhibitor concentration; Y: % Inhibition.
Background: In ATP-based viability assays light output follows the ATP content of the culture.

The target of experiment [1] is Ba/F3_EGFR_del19/T790M/C797S cell (Homo sapiens, UniProt P00533, T790M/C797S, cells depend on it, form not given). The description is as above. Format: cell-based. The settings on record: 72 hr incubation; read-out: IC50 (nM, Ba/F3_EGFR_del19/T790M/C797S cell proliferation). How it is done:
as §1, §2, §3

T1 sequence (P00533 25-1210 T790M/C797S/L858R): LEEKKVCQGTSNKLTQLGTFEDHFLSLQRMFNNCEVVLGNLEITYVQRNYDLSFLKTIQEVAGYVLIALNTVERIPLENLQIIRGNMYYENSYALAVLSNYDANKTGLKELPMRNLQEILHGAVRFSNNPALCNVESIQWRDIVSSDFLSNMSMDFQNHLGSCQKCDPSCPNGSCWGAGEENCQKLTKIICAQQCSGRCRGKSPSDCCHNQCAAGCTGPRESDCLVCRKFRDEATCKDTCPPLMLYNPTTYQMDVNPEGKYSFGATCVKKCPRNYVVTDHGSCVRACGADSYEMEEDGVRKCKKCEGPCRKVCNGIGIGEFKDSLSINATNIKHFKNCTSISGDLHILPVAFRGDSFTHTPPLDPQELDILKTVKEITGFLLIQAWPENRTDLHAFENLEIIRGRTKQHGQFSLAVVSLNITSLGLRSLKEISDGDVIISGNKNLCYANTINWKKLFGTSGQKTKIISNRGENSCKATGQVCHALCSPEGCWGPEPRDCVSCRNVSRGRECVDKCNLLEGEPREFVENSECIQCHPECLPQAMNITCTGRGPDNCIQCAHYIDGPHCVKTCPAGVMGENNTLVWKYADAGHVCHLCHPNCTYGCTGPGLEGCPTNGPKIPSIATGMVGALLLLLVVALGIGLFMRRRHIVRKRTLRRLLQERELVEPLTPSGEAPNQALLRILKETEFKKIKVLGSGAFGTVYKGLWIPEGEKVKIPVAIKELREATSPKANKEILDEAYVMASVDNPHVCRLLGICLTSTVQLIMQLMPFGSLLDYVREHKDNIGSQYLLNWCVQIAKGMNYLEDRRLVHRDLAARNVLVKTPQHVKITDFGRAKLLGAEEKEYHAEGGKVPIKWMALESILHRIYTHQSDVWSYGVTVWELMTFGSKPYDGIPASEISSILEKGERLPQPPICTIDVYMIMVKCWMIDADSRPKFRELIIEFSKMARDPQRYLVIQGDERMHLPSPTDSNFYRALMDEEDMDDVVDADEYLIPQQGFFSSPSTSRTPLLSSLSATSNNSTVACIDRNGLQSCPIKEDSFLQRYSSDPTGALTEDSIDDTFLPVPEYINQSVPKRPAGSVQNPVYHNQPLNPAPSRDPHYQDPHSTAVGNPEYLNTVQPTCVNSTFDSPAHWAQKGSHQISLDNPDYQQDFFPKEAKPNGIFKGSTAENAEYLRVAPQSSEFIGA
Chain of Ba/F3_EGFR_del19/T790M/C797S cell (P00533 with tags, fused parts or gaps DEL746-750/T790M/C797S, form open): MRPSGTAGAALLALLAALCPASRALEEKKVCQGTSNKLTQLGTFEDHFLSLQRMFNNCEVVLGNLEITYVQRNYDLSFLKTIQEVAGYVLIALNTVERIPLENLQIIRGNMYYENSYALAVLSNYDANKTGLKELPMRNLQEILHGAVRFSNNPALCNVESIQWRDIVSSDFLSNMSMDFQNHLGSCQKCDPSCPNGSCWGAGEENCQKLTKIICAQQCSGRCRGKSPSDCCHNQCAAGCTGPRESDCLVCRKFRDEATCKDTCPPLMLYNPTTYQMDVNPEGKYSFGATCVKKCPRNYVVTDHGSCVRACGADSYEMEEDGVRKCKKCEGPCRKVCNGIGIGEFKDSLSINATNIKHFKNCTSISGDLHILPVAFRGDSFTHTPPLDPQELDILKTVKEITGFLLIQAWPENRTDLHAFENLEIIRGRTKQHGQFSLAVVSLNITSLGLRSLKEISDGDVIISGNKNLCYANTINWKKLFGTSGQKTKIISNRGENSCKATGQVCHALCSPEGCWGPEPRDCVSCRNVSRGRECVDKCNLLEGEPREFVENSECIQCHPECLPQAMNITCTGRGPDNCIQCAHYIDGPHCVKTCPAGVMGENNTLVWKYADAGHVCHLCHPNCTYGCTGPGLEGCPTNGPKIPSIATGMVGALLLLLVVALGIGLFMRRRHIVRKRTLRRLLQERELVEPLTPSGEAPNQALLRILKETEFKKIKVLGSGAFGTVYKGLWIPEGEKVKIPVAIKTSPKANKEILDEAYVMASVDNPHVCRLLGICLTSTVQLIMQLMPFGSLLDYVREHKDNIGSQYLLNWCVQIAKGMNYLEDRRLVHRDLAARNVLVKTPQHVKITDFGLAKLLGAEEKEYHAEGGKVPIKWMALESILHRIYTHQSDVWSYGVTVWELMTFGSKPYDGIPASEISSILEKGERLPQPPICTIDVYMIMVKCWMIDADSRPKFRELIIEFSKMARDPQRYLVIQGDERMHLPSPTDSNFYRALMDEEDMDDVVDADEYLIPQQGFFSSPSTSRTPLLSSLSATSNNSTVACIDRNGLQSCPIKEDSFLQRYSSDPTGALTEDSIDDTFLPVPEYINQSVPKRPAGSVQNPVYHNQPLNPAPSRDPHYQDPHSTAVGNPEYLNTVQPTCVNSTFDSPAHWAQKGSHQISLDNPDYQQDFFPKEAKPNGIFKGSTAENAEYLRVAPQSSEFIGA

For `COc1cc(N2CCN(C)CC2)c2cc1Nc1ncc(Cl)c(n1)Nc1ccc(cc1N(C)S(C)(=O)=O)OCCCCCC2` [Compound A14, N-(3^5-chloro-1^6-methoxy-1^4-(4-methylpiperazin-1-yl)-6-oxa-2,4-diaza-3(2,4)-pyrimidina-1(1,3),5(1,4)-dibenzenacyclododecaphane-5^2-yl)-N-methylmethanesulfonamide], the IC50 at EGFR_L858R/T790M/C797S is 16.7 nM; in the experiment on Ba/F3_WT cell, 2960 nM. Also, in experiment [1], the GI50 came out at 897 nM.

As to `COc1cc(N2CCC(N3CCN(C)CC3)CC2)c2cc1Nc1ncc(Cl)c(n1)Nc1ccc(cc1S(=O)(=O)C(C)C)OCCCCC2` [Compound A26, 3^5-chloro-5^2-(isopropylsulfonyl)-16-methoxy-1^4-(4-(4-methylpiperazin-1-yl)piperidin-1-yl)-6-oxa-2,4-diaza-3(2,4)-pyrimidina-1(1,3),5(1,4)-dibenzenacycloundecaphane], the results for the IC50 at EGFR_L858R/T790M/C797S and with Ba/F3_WT cell were 250 nM and 1790 nM, respectively. In addition, the GI50 in experiment [1] stood at 1110 nM.

Regarding `COc1cc(N2CCN(C)CC2)c2cc1Nc1ncc(Cl)c(n1)Nc1ccc(cc1P(C)(C)=O)OCCCCC2` [Compound A18, (3^5-chloro-1^6-methoxy-1^4-(4-methylpiperazin-1-yl)-6-oxa-2,4-diaza-3(2,4)-pyrimidina-1(1,3),5(1,4)-dibenzenacycloundecaphane-5^2-yl)dimethylphosphine oxide], the IC50 was 145 nM at EGFR_L858R/T790M/C797S and more than 10000 nM in the experiment on Ba/F3_WT cell. Also, the GI50 in experiment [1] stood at 520 nM.

With `COc1cc(N2CCN(C(C)=O)CC2)c2cc1Nc1ncc(Cl)c(n1)Nc1ccc(cc1N(C)S(C)(=O)=O)OCCCCC2` [Compound A31, N-(1^4-(4-acetylpiperazin-1-yl)-3^5-chloro-1^6-methoxy-6-oxa-2,4-diaza-3(2,4)-pyrimidina-1(1,3),5(1,4)-dibenzenacycloundecaphane-5^2-yl)-N-methylmethanesulfonamide], the IC50 is 12.7 nM at EGFR_L858R/T790M/C797S and more than 10000 nM with Ba/F3_WT cell. Further, the GI50 in experiment [1] amounted to 154 nM.

For the compound `COc1cc(N2CCC(N(C)C)C2)c2cc1Nc1ncc(Cl)c(n1)Nc1ccc(cc1N(C)S(C)(=O)=O)OCCCCC2` (stereo not shown) [Compound A27, N-(3^5-chloro-1^4-(3-(dimethylamino)pyrrolidin-1-yl)-1^6-methoxy-6-oxa-2,4-diaza-3(2,4)-pyrimidina-1(1,3),5(1,4)-dibenzenacycloundecaphane-5^2-yl)-N-methylmethanesulfonamide], the values for the IC50 at EGFR_L858R/T790M/C797S and in the experiment on Ba/F3_WT cell were 2.3 nM and 3400 nM, respectively. Moreover, the GI50 in experiment [1] was found to be 330 nM.

On to `COc1cc(N2CCC(N3CCN(C)CC3)CC2)c2cc1Nc1ncc(Cl)c(n1)Nc1ccc(cc1N(C)S(C)(=O)=O)OCCCCCC2` [Compound A15, N-(3^5-chloro-1^6-methoxy-1^4-(4-(4-methylpiperazin-1-yl)piperidin-1-yl)-6-oxa-2,4-diaza-3(2,4)-pyrimidina-1(1,3),5(1,4)-dibenzenacyclododecaphane-5^2-yl)-N-methylmethanesulfonamide], for which the IC50 at EGFR_L858R/T790M/C797S stood at 0.5 nM; with Ba/F3_WT cell, 2660 nM. Moreover, the GI50 in experiment [1] amounted to 195 nM.

Regarding `CCN(c1cc2ccc1Nc1nc(ncc1Cl)Nc1cc(c(N3CCN(C)CC3)cc1OC)CCCCCO2)S(C)(=O)=O` [Compound A10, N-(3^5-chloro-1^6-methoxy-1^4-(4-methylpiperazin-1-yl)-6-oxa-2,4-diaza-3(2,4)-pyrimidina-1(1,3),5(1,4)-dibenzenacycloundecaphane-5^2-yl)-N-ethylmethanesulfonamide], the results for the IC50 on EGFR_L858R/T790M/C797S and in the experiment with Ba/F3_WT cell were 0.5 nM and 1840 nM, respectively. In addition, the GI50 in experiment [1] worked out at 125 nM.

As to `COc1cc(N2CCN(C)CC2)c2cc1Nc1ncc(Cl)c(n1)Nc1ccc(cc1N(C)S(C)(=O)=O)OCCC2` [Compound A2, N-(3^5-chloro-1^6-methoxy-1^4-(4-methylpiperazin-1-yl)-6-oxa-2,4-diaza-3(2,4)-pyrimidina-1(1,3),5(1,4)-dibenzenacyclononaphane-5^2-yl)-N-methylmethanesulfonamide], the IC50 on EGFR_L858R/T790M/C797S is 643 nM.
